Results: patent US20050238730A1, “Compositions comprising an ethanolamine derivative and organic metal salts” (priority 2001, published 2005)

Test system: human dermal fibroblasts
Test: Fibroblasts proliferation after 10 days of culture (cells trypsinized and counted with a Coulter counter)
Format: cell-based
Conditions: 2% FCS
Method: Fibroblasts were seeded in 24 multiwell plates at 25,000 cells per well in 1 ml of DMEM supplemented with fetal calf serum (FCS) and antibiotics. Cultures were incubated 24 hours at 37° C. to allow cell attachment and spreading. Supernatants were then eliminated and replaced with fresh medium supplemented with 2% of FCS and containing the tested product at different concentrations. After 10 days of culture, cells were trypsinized and counted with a Coulter counter.

Molecule	% effect vs control (DMAE 10^-4 M alone) [%]	% effect vs control (DMAE 10^-5 M alone) [%]	% effect vs control (metal salt alone 5 ng/ml) [%]	Mean of cell/ml (metal salt alone 5 ng/ml) [cell/ml]	% effect vs control (metal salt alone 50 ng/ml) [%]	Mean of cell/ml (metal salt alone 50 ng/ml) [cell/ml]	% effect vs control (metal salt alone 500 ng/ml) [%]	Mean of cell/ml (metal salt alone 500 ng/ml) [cell/ml]
CN(C)CCO [DMAE, dimethylaminoethanol]	31	14	–	–	–	–	–	–
N[C@@H](CC(=O)[O-])C(=O)[O-].[Mg+2] [Mg aspartate, magnesium aspartate]	–	–	2	78073 ± 4231	3	79400 ± 1674	21	92753 ± 2771
zinc gluconate [Zn gluconate]	–	–	0	–	3	–	11	–
